Reference: patent US20210386668A1, “Cyclodextrin for use in the treatment and prevention of late phase bronchoconstriction in allergen-induced asthma” (Universite de Liege, priority 2020, published 2021)

Experiments:
[1] = test system: BALB/c mice, OVA induced inflammation and AHR; test: Ovalbumin-induced airway inflammation and AHR mouse model; type: in vivo; conditions: HPBCD 10 mM inhalation
Description: Two intranasal instillations of house dust mite were performed on days 0 and 7 to induce the migration of specific memory CD4+ T-cells into lung parenchyma, followed by a challenge instillation on day 14. […] The last house dust mite instillation was preceded by two days of HPBCD or PBS inhalations and followed by three inhalations until sacrifice (FIG. 1A). […] Airway responsiveness was evaluated by exposing animals to increasing doses of inhaled methacholine and by measuring Newtonian resistances representing the resistance of central or conducting airways. […] The bronchoalveolar lavage fluid (BALF) was then recovered and analyzed for cell content. […] The effect of HPBCD inhalation on T-cell numbers in lung parenchyma was investigated by flow cytometry.
Mice were lightly isoflurane-anesthetized and received an intra-nasal (i.n) instillation of HDM extract (100 μg; 50 μl) in endotoxin-free saline on days 0, 7 and 14. Mice were subjected to inhalation (generated by ultrasonic nebulizer (Devilbiss 2000)) of HPBCD 10 mM or endotoxin-free saline for 40 minutes between day 12 and 16. On day 14, they received the inhalation 1 h before the last i.n. instillation of HDM. After measurement of bronchial responsiveness using the FlexiVent System, mice were sacrificed on day 17. Mice submitted to ovalbumin as allergen were i.p injected with 10 mcg ovalbumin grade 5 and exposed to ovalbumin grade 3 by inhalation between day 21 and 25. Mice were treated with HPBCD 10 mM given by inhalation between day 19 and 25. […]
Mice were anesthetized by intraperitoneal injection with a mixture of ketamine (10 mg/ml, Merial, Brussel, Belgium) and xylazine (1 mg/ml, VMD, Arendonk, Belgium). […] Respiratory parameters following methacholine challenge (3, 6, and 12 gr/l (or 24 gr/l)) were evaluated using a 3 sec broadband signal to measure input impedance from 1 to 20.5 Hz and to calculate constant-phase model parameters (Quick-prime 3). Newtonian resistance (Rn) was the main parameter measured during the challenge. […]

[2] = test system: naïve CD4+ T cells (Balb/c); test: In-vitro T-cell proliferation assay (BrdU incorporation, IL-2 secretion); type: cell-based, mice; conditions: HPBCD 5 mM, 48 h incubation
Description: The term “T-cell proliferation” means an increase in T-cells over a given period of time. In one embodiment, T-cell proliferation is measured by flow cytometry analysis of lung TH2 cells and total leukocyte counts. An exemplary embodiment of a way to measure T-cell proliferation is given in example 1 below. In one embodiment, naïve CD4+ T cells are exposed to HPBCD at a concentration of 5 mM and an anti-CD3 (3 mcg/ml) for 24 hours or 48 hours with HPBCD (5 mM) or with culture medium alone at 37° C. 5% CO2. During the last 2 hours of the proliferation test, Bromodeoxyuridine is added to the medium and incorporation is quantified by ELISA. IL-2 secretion is measured in the medium after 24 hours and 48 hours of anti-CD3 stimulation through ELISA. HPBCD was used at a concentration of 5 mM. […] Naïve CD4+ T cells were isolated from Balb/c mice spleen and purified with a MACS® negative selection kit. 1.5×10^5 cells were seeded in a 96 well plate and incubated with HPBCD 5 mM (in RPMI 10% FBS 1% pen/strep) or with medium alone for 3 h. Cells were then recovered and plated in an anti-CD3 (3 mcg/ml) coated well for 24 or 48 h with HPBCD (5 mM) or with culture medium alone at 37° C. 5% CO2. During the last 2 h of the proliferation test, BrdU was added to medium and incorporation was quantified by ELISA following manufacturer instructions. […]

CC(O)COC[C@H]1O[C@@H]2O[C@H]3[C@H](O)[C@@H](O)[C@@H](O[C@H]4[C@H](O)[C@@H](O)[C@@H](O[C@H]5[C@H](O)[C@@H](O)[C@@H](O[C@H]6[C@H](O)[C@@H](O)[C@@H](O[C@H]7[C@H](O)[C@@H](O)[C@@H](O[C@H]8[C@H](O)[C@@H](O)[C@@H](O[C@H]1[C@H](O)[C@H]2O)O[C@@H]8COCC(C)O)O[C@@H]7COCC(C)O)O[C@@H]6COCC(C)O)O[C@@H]5COCC(C)O)O[C@@H]4COCC(C)O)O[C@@H]3COCC(C)O (stereo partly drawn) [HPBCD, 2-hydroxypropyl-beta-cyclodextrin]
airway hyperresponsiveness induced by ovalbumin ([1]; FIG. 2B): significantly decrease | number of inflammatory cells in BALF ([1]; FIG. 2C): significantly decrease | number of eosinophils around the bronchi ([1]; FIG. 2D): significantly decrease | cytotoxicity (BrdU incorporation) [2]: not associated with cytotoxicity
